{"source": "paper PMC12136037", "about": "“Type II kinase inhibitors that target Parkinson’s disease–associated LRRK2” (Science Advances, 2025)", "assay_in_all_cases": "nanoBRET off-target validation", "type_in_all_cases": "cell-based", "key": {"JNK2": {"target": "T1, JNK2 (Homo sapiens, UniProt P45984)", "T1 construct": "host or cells: HEK293T (ATCC CRL-3216)", "T1 sequence (P45984 whole entry, the tested form may be a part)": "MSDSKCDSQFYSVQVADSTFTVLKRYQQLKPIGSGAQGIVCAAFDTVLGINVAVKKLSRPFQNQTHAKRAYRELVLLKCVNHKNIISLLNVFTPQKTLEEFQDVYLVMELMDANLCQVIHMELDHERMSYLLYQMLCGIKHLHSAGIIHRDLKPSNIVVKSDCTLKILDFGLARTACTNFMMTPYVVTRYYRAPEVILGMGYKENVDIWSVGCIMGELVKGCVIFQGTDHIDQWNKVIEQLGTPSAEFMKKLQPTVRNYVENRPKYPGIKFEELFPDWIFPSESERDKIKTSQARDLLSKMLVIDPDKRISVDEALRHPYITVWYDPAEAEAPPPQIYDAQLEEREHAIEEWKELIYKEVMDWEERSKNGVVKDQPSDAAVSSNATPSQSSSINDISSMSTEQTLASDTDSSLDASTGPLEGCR", "method": "(§1) The assay was performed as described previously ([61]). In brief, full-length kinases as listed in table S6 were obtained as plasmids cloned in frame with terminal NanoLuc-fusion (gift from Promega; table S6). […] Serially diluted inhibitor and corresponding tracer as listed in table S6 at the Tracer KD concentration taken from TracerDB (tracerdb.org) ([62]) were pipetted into white 384-well plates (Greiner, 781207) using an ECHO acoustic dispenser (Labcyte). The corresponding protein-transfected cells were added and reseeded at a density of 2 × 10^5 cells/ml after trypsinization and resuspending in Opti-MEM without phenol red (Life Technologies). The system was allowed to equilibrate for 3 hours at 37°C/5% CO2 before bioluminescence resonance energy transfer (BRET) measurements. To measure BRET, NanoBRET NanoGlo Substrate + extracellular NanoLuc Inhibitor (Promega, N2540) was added as per the manufacturer’s protocol, and filtered luminescence was measured on a PHERAstar plate reader (BMG Labtech) equipped with a luminescence filter pair [450-nm BP filter (donor) and 610-nm LP filter (acceptor)]. […] (For step-by-step protocol, see www.eubopen.org/sites/www.eubopen.org/files/attachments/2021/NanoBRET-IC50_v1_0.pdf.)"}, "JNK3": {"target": "T2, JNK3 (Homo sapiens, UniProt P53779)", "T2 construct": "host or cells: HEK293T (ATCC CRL-3216)", "T2 sequence (P53779 whole entry)": "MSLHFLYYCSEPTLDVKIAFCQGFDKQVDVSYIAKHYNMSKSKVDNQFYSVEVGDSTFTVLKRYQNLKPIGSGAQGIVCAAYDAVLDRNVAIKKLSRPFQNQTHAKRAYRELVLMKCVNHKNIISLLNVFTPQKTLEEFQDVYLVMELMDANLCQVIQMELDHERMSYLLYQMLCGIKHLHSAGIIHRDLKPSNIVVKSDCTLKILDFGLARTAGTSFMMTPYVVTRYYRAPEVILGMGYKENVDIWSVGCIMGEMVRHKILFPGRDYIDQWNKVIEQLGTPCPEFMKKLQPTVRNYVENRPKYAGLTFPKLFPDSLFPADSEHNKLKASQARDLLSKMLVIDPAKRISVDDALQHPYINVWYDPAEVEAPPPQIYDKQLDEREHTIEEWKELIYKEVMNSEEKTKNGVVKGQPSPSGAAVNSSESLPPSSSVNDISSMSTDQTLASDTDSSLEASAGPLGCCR", "method": "as §1"}, "SLK": {"target": "T3, SLK (Homo sapiens, UniProt Q9H2G2)", "T3 construct": "host or cells: HEK293T (ATCC CRL-3216)", "T3 sequence (Q9H2G2 whole entry)": "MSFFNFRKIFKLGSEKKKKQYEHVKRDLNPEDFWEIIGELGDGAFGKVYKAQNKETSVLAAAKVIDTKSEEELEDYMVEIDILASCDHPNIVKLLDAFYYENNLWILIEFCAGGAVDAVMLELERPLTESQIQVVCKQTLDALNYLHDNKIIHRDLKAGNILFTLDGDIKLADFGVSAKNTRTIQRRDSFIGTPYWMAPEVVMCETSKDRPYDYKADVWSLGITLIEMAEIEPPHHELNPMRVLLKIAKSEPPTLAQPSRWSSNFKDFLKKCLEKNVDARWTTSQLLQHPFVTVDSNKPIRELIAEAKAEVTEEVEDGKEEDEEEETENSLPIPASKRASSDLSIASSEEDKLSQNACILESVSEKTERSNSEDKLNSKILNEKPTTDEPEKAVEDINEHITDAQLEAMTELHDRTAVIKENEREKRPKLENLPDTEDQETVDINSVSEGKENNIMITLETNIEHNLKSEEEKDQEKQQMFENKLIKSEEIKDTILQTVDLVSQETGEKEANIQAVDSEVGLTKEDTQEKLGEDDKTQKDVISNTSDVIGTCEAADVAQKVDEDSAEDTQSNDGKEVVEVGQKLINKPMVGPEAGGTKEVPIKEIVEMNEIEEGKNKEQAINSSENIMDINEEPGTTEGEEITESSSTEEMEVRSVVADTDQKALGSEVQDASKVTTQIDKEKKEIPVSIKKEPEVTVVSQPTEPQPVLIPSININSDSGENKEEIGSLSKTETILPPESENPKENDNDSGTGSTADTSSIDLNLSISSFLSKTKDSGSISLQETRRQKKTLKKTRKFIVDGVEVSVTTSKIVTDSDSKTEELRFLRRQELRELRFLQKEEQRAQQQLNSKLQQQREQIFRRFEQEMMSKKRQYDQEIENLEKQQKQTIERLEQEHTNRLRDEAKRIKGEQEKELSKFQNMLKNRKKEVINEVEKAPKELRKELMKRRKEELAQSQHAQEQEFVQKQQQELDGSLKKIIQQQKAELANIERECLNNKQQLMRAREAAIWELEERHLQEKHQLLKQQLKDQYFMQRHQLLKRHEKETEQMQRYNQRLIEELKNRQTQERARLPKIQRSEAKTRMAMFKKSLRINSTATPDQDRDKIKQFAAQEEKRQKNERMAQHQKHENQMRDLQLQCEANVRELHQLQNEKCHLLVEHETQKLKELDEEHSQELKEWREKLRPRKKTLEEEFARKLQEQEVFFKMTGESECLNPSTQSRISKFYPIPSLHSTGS", "method": "as §1"}}, "note": "Where “and” joins values, the source holds several entries; their conditions need not be identical. Identical values can stand only once. Like-named read-outs stand apart in the source and are kept apart here.", "data": [{"smiles": "CCSc1nc(NC)c2c(-c3cccc(NC(=O)Nc4cc(C(C)(C)C)nn4-c4ccc(C)cc4)c3)c[nH]c2n1", "note": "[Compound 32]", "values": [{"measurement": "nanoBRET response normalized to 0% (no tracer) and 100% (no inhibitor) control", "setting": "JNK2; JNK2, inhibitor 500 nM, two replicates, listed as RN341, 0.5 µM", "result": 61.7006, "unit": "%"}, {"measurement": "remaining activity at 0.5 µM", "setting": "JNK2; JNK2, inhibitor 500 nM, two replicates, read-out: nanoBRET response normalized to 0% (no tracer) and 100% (no inhibitor) control", "result": 65.3, "unit": "%"}, {"measurement": "nanoBRET response normalized to 0% (no tracer) and 100% (no inhibitor) control", "setting": "JNK2; JNK2, inhibitor 2500 nM, two replicates, listed as RN341, […]", "result": 73.4181, "unit": "%"}, {"measurement": "remaining activity at […]", "setting": "JNK2; JNK2, inhibitor 2500 nM, two replicates, read-out: nanoBRET response normalized to 0% (no tracer) and 100% (no inhibitor) control", "result": 71.9, "unit": "%"}, {"measurement": "nanoBRET response normalized to 0% (no tracer) and 100% (no inhibitor) control", "setting": "JNK2; JNK2, inhibitor 5000 nM, two replicates, listed as RN341, 5 µM", "result": 50.6395, "unit": "%"}, {"measurement": "remaining activity at 5 µM", "setting": "JNK2; JNK2, inhibitor 5000 nM, two replicates, read-out: nanoBRET response normalized to 0% (no tracer) and 100% (no inhibitor) control", "result": 57.2, "unit": "%"}, {"measurement": "nanoBRET response normalized to 0% (no tracer) and 100% (no inhibitor) control", "setting": "JNK2; JNK2, inhibitor 25000 nM, two replicates, listed as RN341, 25 µM", "result": 6.955, "unit": "%"}, {"measurement": "remaining activity at 25 µM", "setting": "JNK2; JNK2, inhibitor 25000 nM, two replicates, read-out: nanoBRET response normalized to 0% (no tracer) and 100% (no inhibitor) control", "result": 9.64, "unit": "%"}, {"measurement": "EC50", "setting": "JNK2; in cellulo nanoBRET, 293T cells", "result": "< 5 µM and 2.7 µM"}, {"measurement": "EC50", "setting": "JNK3", "result": 15, "unit": "µM"}, {"measurement": "nanoBRET response normalized to 0% (no tracer) and 100% (no inhibitor) control", "setting": "JNK3; JNK3, inhibitor 8 nM, two replicates, listed as RN341, 0.008 µM", "result": 99.6644, "unit": "%"}, {"measurement": "remaining nanoBRET tracer signal at 0.008 µM", "setting": "JNK3; JNK3, inhibitor 8 nM, two replicates, read-out: nanoBRET response normalized to 0% (no tracer) and 100% (no inhibitor) control", "result": 90, "unit": "%"}, {"measurement": "nanoBRET response normalized to 0% (no tracer) and 100% (no inhibitor) control", "setting": "JNK3; JNK3, inhibitor 16 nM, two replicates, listed as RN341, 0.016 µM", "result": 91.5832, "unit": "%"}, {"measurement": "remaining nanoBRET tracer signal at 0.016 µM", "setting": "JNK3; JNK3, inhibitor 16 nM, two replicates, read-out: nanoBRET response normalized to 0% (no tracer) and 100% (no inhibitor) control", "result": 91.5, "unit": "%"}, {"measurement": "nanoBRET response normalized to 0% (no tracer) and 100% (no inhibitor) control", "setting": "JNK3; JNK3, inhibitor 50 nM, two replicates, listed as RN341, 0.05 µM", "result": 98.9095, "unit": "%"}, {"measurement": "remaining nanoBRET tracer signal at 0.05 µM", "setting": "JNK3; JNK3, inhibitor 50 nM, two replicates, read-out: nanoBRET response normalized to 0% (no tracer) and 100% (no inhibitor) control", "result": 96.2, "unit": "%"}, {"measurement": "nanoBRET response normalized to 0% (no tracer) and 100% (no inhibitor) control", "setting": "JNK3; JNK3, inhibitor 250 nM, two replicates, listed as RN341, […]", "result": 99.8628, "unit": "%"}, {"measurement": "remaining nanoBRET tracer signal at […]", "setting": "JNK3; JNK3, inhibitor 250 nM, two replicates, read-out: nanoBRET response normalized to 0% (no tracer) and 100% (no inhibitor) control", "result": 96.3, "unit": "%"}, {"measurement": "nanoBRET response normalized to 0% (no tracer) and 100% (no inhibitor) control", "setting": "JNK3; JNK3, inhibitor 500 nM, two replicates, listed as RN341, 0.5 µM", "result": 92.6932, "unit": "%"}, {"measurement": "remaining nanoBRET tracer signal at 0.5 µM", "setting": "JNK3; JNK3, inhibitor 500 nM, two replicates, read-out: nanoBRET response normalized to 0% (no tracer) and 100% (no inhibitor) control", "result": 93.9, "unit": "%"}, {"measurement": "nanoBRET response normalized to 0% (no tracer) and 100% (no inhibitor) control", "setting": "JNK3; JNK3, inhibitor 2500 nM, two replicates, listed as RN341, […]", "result": 84.3032, "unit": "%"}, {"measurement": "remaining nanoBRET tracer signal at […]", "setting": "JNK3; JNK3, inhibitor 2500 nM, two replicates, read-out: nanoBRET response normalized to 0% (no tracer) and 100% (no inhibitor) control", "result": 90.4, "unit": "%"}, {"measurement": "nanoBRET response normalized to 0% (no tracer) and 100% (no inhibitor) control", "setting": "JNK3; JNK3, inhibitor 5000 nM, two replicates, listed as RN341, 5 µM", "result": 67.4443, "unit": "%"}, {"measurement": "remaining nanoBRET tracer signal at 5 µM", "setting": "JNK3; JNK3, inhibitor 5000 nM, two replicates, read-out: nanoBRET response normalized to 0% (no tracer) and 100% (no inhibitor) control", "result": 74.7, "unit": "%"}, {"measurement": "nanoBRET response normalized to 0% (no tracer) and 100% (no inhibitor) control", "setting": "JNK3; JNK3, inhibitor 25000 nM, two replicates, listed as RN341, 25 µM", "result": 34.5338, "unit": "%"}, {"measurement": "remaining nanoBRET tracer signal at 25 µM", "setting": "JNK3; JNK3, inhibitor 25000 nM, two replicates, read-out: nanoBRET response normalized to 0% (no tracer) and 100% (no inhibitor) control", "result": 48.6, "unit": "%"}, {"measurement": "EC50", "setting": "SLK", "result": "> 20", "unit": "µM"}, {"measurement": "nanoBRET response normalized to 0% (no tracer) and 100% (no inhibitor) control", "setting": "SLK; SLK, inhibitor 8 nM, two replicates, listed as RN341, 0.008 µM", "result": 107.417, "unit": "%"}, {"measurement": "NanoBRET tracer signal (% of no-inhibitor control) at 0.008 µM", "setting": "SLK; SLK, inhibitor 8 nM, two replicates, read-out: nanoBRET response normalized to 0% (no tracer) and 100% (no inhibitor) control", "result": 106, "unit": "%"}, {"measurement": "nanoBRET response normalized to 0% (no tracer) and 100% (no inhibitor) control", "setting": "SLK; SLK, inhibitor 16 nM, two replicates, listed as RN341, 0.016 µM", "result": 115.381, "unit": "%"}, {"measurement": "NanoBRET tracer signal (% of no-inhibitor control) at 0.016 µM", "setting": "SLK; SLK, inhibitor 16 nM, two replicates, read-out: nanoBRET response normalized to 0% (no tracer) and 100% (no inhibitor) control", "result": 113, "unit": "%"}, {"measurement": "NanoBRET tracer signal (% of no-inhibitor control) at 0.05 µM", "setting": "SLK; SLK, inhibitor 50 nM, two replicates, read-out: nanoBRET response normalized to 0% (no tracer) and 100% (no inhibitor) control", "result": "102% and 106%"}, {"measurement": "nanoBRET response normalized to 0% (no tracer) and 100% (no inhibitor) control", "setting": "SLK; SLK, inhibitor 250 nM, two replicates, listed as RN341, […]", "result": 119.576, "unit": "%"}, {"measurement": "NanoBRET tracer signal (% of no-inhibitor control) at […]", "setting": "SLK; SLK, inhibitor 250 nM, two replicates, read-out: nanoBRET response normalized to 0% (no tracer) and 100% (no inhibitor) control", "result": 107, "unit": "%"}, {"measurement": "nanoBRET response normalized to 0% (no tracer) and 100% (no inhibitor) control", "setting": "SLK; SLK, inhibitor 500 nM, two replicates, listed as RN341, 0.5 µM", "result": 122.526, "unit": "%"}, {"measurement": "NanoBRET tracer signal (% of no-inhibitor control) at 0.5 µM", "setting": "SLK; SLK, inhibitor 500 nM, two replicates, read-out: nanoBRET response normalized to 0% (no tracer) and 100% (no inhibitor) control", "result": 118, "unit": "%"}, {"measurement": "nanoBRET response normalized to 0% (no tracer) and 100% (no inhibitor) control", "setting": "SLK; SLK, inhibitor 2500 nM, two replicates, listed as RN341, […]", "result": 114.832, "unit": "%"}, {"measurement": "NanoBRET tracer signal (% of no-inhibitor control) at […]", "setting": "SLK; SLK, inhibitor 2500 nM, two replicates, read-out: nanoBRET response normalized to 0% (no tracer) and 100% (no inhibitor) control", "result": 117, "unit": "%"}, {"measurement": "nanoBRET response normalized to 0% (no tracer) and 100% (no inhibitor) control", "setting": "SLK; SLK, inhibitor 5000 nM, two replicates, listed as RN341, 5 µM", "result": 116.499, "unit": "%"}, {"measurement": "NanoBRET tracer signal (% of no-inhibitor control) at 5 µM", "setting": "SLK; SLK, inhibitor 5000 nM, two replicates, read-out: nanoBRET response normalized to 0% (no tracer) and 100% (no inhibitor) control", "result": 105, "unit": "%"}, {"measurement": "nanoBRET response normalized to 0% (no tracer) and 100% (no inhibitor) control", "setting": "SLK; SLK, inhibitor 25000 nM, two replicates, listed as RN341, 25 µM", "result": 86.6362, "unit": "%"}, {"measurement": "NanoBRET tracer signal (% of no-inhibitor control) at 25 µM", "setting": "SLK; SLK, inhibitor 25000 nM, two replicates, read-out: nanoBRET response normalized to 0% (no tracer) and 100% (no inhibitor) control", "result": 83.9, "unit": "%"}]}]}
